Experiment [1] deals with T1, SERT (Homo sapiens, UniProt P31645). Briefly: fluorescence-based serotonin uptake assay (Tsuruda et al. 2010). The class given is cell-based. To be noted: serotonin reuptake inhibition, fluorescence-based assay (data indicated by an asterisk).
Target sequence in this assay (P31645 whole entry, species assumed): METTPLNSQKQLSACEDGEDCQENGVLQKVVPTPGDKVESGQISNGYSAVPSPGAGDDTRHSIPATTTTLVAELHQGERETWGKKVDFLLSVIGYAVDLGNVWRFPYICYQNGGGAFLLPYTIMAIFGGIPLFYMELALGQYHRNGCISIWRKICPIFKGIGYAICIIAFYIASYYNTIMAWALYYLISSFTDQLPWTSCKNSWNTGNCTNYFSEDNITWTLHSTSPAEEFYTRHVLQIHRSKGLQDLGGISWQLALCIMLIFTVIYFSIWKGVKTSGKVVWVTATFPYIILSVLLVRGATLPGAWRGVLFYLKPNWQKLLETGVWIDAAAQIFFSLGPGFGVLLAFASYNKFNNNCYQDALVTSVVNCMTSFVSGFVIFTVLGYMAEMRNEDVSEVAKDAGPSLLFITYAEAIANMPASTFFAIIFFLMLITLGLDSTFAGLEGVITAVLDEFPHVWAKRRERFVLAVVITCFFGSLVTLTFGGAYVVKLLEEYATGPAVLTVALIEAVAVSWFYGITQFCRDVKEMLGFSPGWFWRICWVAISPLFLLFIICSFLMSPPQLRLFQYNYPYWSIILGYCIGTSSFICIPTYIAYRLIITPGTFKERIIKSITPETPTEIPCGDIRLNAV
Experiment [2] has as its target T1, SERT. The experiment in a line: hSERT membrane radioligand binding assay (3H-citalopram). The arrangement: expressed in transfected cells; host or cells: HEK-293. To be noted: hSERT membranes (HEK-293), 1.0 nM 3H-citalopram; for Ki: read-out: SERT pKi (converted). The procedure:
(§1) Membrane radioligand binding assays were used to measure inhibition of labeled ligand (^3H-citalopram or ^3H-nisoxetine or ^3H-WIN35428) binding to membranes prepared from cells expressing the respective human recombinant transporter (hSERT or hNET or hDAT) in order to determine the pKi values of test compounds at the transporters.
(§2) Recombinant human embryonic kidney (HEK-293) derived cell lines stably transfected with hSERT or hNET, respectively, were grown in DMEM medium supplemented with 10% dialyzed FBS (for hSERT) or FBS (for hNET), 100 μg/ml penicillin, 100 μg/ml streptomycin, 2 mM L-glutamine and 250 μg/ml of the aminoglycoside antibiotic G418, in a 5% CO2 humidified incubator at 37° C. When cultures reached 80% confluence, the cells were washed thoroughly in PBS (without Ca^2+ and Mg^2+) and lifted with 5 mM EDTA in PBS. Cells were pelleted by centrifugation, resuspended in lysis buffer (10 mM Tris-HCl, pH7.5 containing 1 mM EDTA), homogenized, pelleted by centrifugation, then resuspended in 50 mM Tris-HCl, pH 7.5 and 10% sucrose at 4° C. Protein concentration of the membrane suspension was determined using a Bio-Rad Bradford Protein Assay kit. Membranes were snap frozen and stored at −80° C. Chinese hamster ovary membranes expressing hDAT (CHO-DAT) were purchased from PerkinElmer and stored at −80° C.
(§3) Binding assays were performed in a 96-well assay plate in a total volume of 200 μl assay buffer (50 mM Tris-HCl, 120 mM NaCl, 5 mM KCl, pH 7.4) with 0.5, 1, and 3 μg membrane protein, for SERT, NET and DAT, respectively.
(§4) Stock solutions (10 mM in DMSO) of test compound were prepared and serial dilutions made using Dilution Buffer (50 mM Tris-HCl, 120 mM NaCl, 5 mM KCl, pH 7.4, 0.1% BSA, 400 μM ascorbic acid). Non-specific radioligand binding was determined in the presence of 1 μM duloxetine, 1 μM desipramine or 10 μM GBR12909 (each in Dilution Buffer) for the hSERT, hNET or hDAT assays, respectively.
(§5) Following a 60 minute incubation at 22° C. (or a period sufficient to reach equilibrium), the membranes were harvested by rapid filtration over a 96-well UniFilter GF/B plate, pretreated with 0.3% polyethyleneimine, and washed 6 times with […] (50 mM Tris-HCl, 0.9% NaCl, pH 7.5 at 4° C.). Plates were dried overnight at room temperature, approximately […] of MicroScint™-20 (Perkin Elmer) added and bound radioactivity quantitated via liquid scintillation spectroscopy. Inhibition curves and saturation isotherms were analyzed using GraphPad Prism Software package (GraphPad Software, Inc., San Diego, Calif.). IC50 values were generated from concentration response curves using the Sigmoidal Dose Response (variable slope) algorithm in Prism GraphPad. Kd and Bmax values for the radioligand were generated from saturation isotherms using the Saturation Binding Global Fit algorithm in Prism GraphPad. pKi (negative decadic logarithm of Ki) values for test compounds were calculated from the best-fit IC50 values, and the Kd value of the radioligand, using the Cheng-Prusoff equation (Cheng & Prusoff (1973) Biochem. Pharmacol. 22(23):3099-3108): Ki=IC50/(1+[L]/Kd), where [L]=concentration radioligand.
Target sequence in this assay (P31645 whole entry): as the sequence (P31645 whole entry, species assumed) above

A further experiment addresses NET (Homo sapiens, UniProt P23975). The experiment in a line: hNET membrane radioligand binding assay (3H-nisoxetine). Set-up: expressed in transfected cells; host or cells: HEK-293. To be noted: hNET membranes (HEK-293), 1.0 nM 3H-nisoxetine; read-out: NET pKi (converted). The procedure: as §1, §2, §3, §4, §5

This is an account of results in patent US8455665B2, “3-phenoxymethylpyrrolidine compounds” (Theravance, Inc., priority 2009, dated 2013).

Marks after values point to notes of the source that are not given here.

Sequence of NET (P23975 whole entry): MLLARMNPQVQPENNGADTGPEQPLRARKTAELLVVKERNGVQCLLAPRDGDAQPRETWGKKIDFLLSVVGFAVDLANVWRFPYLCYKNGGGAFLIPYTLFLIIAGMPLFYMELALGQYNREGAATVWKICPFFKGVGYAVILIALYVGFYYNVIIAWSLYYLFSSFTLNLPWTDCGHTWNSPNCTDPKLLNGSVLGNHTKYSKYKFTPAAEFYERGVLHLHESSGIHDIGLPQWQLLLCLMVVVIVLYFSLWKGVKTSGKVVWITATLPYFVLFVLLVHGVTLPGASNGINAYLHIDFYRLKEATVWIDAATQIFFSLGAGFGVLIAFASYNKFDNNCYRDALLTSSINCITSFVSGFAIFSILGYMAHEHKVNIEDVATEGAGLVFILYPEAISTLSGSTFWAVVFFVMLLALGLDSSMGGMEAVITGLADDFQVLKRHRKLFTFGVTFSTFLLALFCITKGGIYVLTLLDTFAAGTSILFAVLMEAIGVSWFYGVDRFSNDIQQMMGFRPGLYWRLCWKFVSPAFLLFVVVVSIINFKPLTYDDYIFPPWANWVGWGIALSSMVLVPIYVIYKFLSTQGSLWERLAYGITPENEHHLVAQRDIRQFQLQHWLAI

Regarding `Cc1c(Cl)cccc1O[C@@H](COC(C)C)[C@@H]1CCNC1` [Example 9-25, (R)-3-[(R)-1-(3-Chloro-2-methylphenoxy)-2-isopropoxyethyl]pyrrolidine], the “SERT pIC50” value on SERT [1] is on record as “≧8.0*”. Also, at SERT [2], the “SERT pKi” value is reported as “≧8.0”.
Regarding `FC(F)(F)c1c(Cl)cccc1O[C@H](C1CCOCC1)[C@H]1CCNC1` [Example 13-19, (S)-3-[(R)-(3-Chloro-2-trifluoromethylphenoxy)(tetrahydropyran-4-yl)-methyl]-pyrrolidine], the Ki was not above 100 nM at NET and not above 10 nM on SERT [2].
With `COCC(Oc1ccc(Cl)cc1)C1CCNC1` (stereo not drawn) [Example 4-4, 3-[1-(4-Chlorophenoxy)-2-methoxyethyl]pyrrolidine], the figures for the Ki on NET and at SERT [2] were not above 100 nM and not above 10 nM, respectively.
Turning to `FC(F)(F)c1c(Cl)cccc1O[C@@H](C1CCOCC1)[C@@H]1CCNC1` [Example 13-21, (R)-3-[(S)-(3-Chloro-2-trifluoromethylphenoxy)(tetrahydropyran-4-yl)-methyl]-pyrrolidine], the Ki was not above 100 nM at NET and not above 10 nM on SERT [2].
As for `COC[C@H](Oc1cccc(F)c1Cl)[C@H]1CCNC1` [Example 4-12, (S)-3-[(R)-1-(2-Chloro-3-fluorophenoxy)-2-methoxyethyl]pyrrolidine], the Ki is not above 10 nM on NET and not above 100 nM on SERT [2].
Consider `Clc1cccc(Cl)c1O[C@@H](C1CCOCC1)[C@@H]1CCNC1` [Example 13-27, (R)-3-[(S)-(2,6-Dichlorophenoxy)(tetrahydropyran-4-yl)methyl]pyrrolidine], for which the Ki on NET is not above 10 nM; at SERT [2], not above 100 nM.
For `COCC(Oc1ccccc1Cl)C1CCNC1` (single isomer, unassigned) [Example 4-1, 3-[1-(2-Chlorophenoxy)-2-methoxyethyl]pyrrolidine], the Ki at NET and at SERT [2] was not above 100 nM each time.
Take `FC(F)(F)c1cc(Cl)ccc1O[C@H](C1CCOCC1)[C@@H]1CCNC1` [Example 13-23, (R)-3-[(R)-(4-Chloro-2-trifluoromethylphenoxy)(tetrahydropyran-4-yl)methyl]pyrrolidine]: the Ki at NET is not above 100 nM; on SERT [2], not above 10 nM.
For `COC[C@H](Oc1c(Cl)cccc1Cl)[C@H]1CCNC1` [Example 4-28, (S)-3-[(R)-1-(2,6-Dichlorophenoxy)-2-methoxyethyl]pyrrolidine], the Ki is not above 10 nM on NET and not above 100 nM at SERT [2].
With `COC[C@H](Oc1cccc(Cl)c1Cl)[C@@H]1CCNC1` [Example 4-8, (R)-3-[(R)-1-(2,3-Dichlorophenoxy)-2-methoxyethyl]pyrrolidine], the Ki at NET was not above 100 nM; on SERT [2] it was not above 10 nM.
As for `COCCC(Oc1ccc(Cl)cc1C)C1CCNC1` (single isomer, unassigned) [5 (1st peak)], the figures for the Ki on NET and on SERT [2] were not above 100 nM and not above 10 nM, respectively.
In the case of `Clc1cc(Cl)cc(O[C@@H](C2CCOCC2)[C@H]2CCNC2)c1` [Example 13-28, (S)-3-[(S)-(3,5-Dichlorophenoxy)(tetrahydropyran-4-yl)methyl]pyrrolidine], the Ki on NET was not above 100 nM; on SERT [2], not above 10 nM.
The corresponding values for `COC[C@H](Oc1cccc(C(F)(F)F)c1)[C@H]1CCNC1` [Example 4-3, (S)-3-[(R)-2-Methoxy-1-(3-trifluoromethylphenoxy)ethyl]pyrrolidine] are not above 100 nM and not above 100 nM.
Take `COC[C@@H](Oc1c(Cl)cccc1Cl)[C@H]1CCNC1` [Example 4-27, (S)-3-[(S)-1-(2,6-Dichlorophenoxy)-2-methoxyethyl]pyrrolidine]: the Ki on NET and on SERT [2] was not above 100 nM throughout.
On to `FC(F)(F)c1c(Cl)cccc1OC(C1CCOCC1)C1CCNC1` [Example 13-18, (S)-3-[(S)-(3-Chloro-2-trifluoromethylphenoxy)(tetrahydropyran-4-yl)-methy]-pyrrolidine], for which the Ki on NET is not above 100 nM; on SERT [2] it was not above 10 nM.
In the case of `FC(F)(F)c1cccc(O[C@@H](C2CCOCC2)[C@H]2CCNC2)c1` [Example 13-8, (S)-3-[(S)-(Tetrahydropyran-4-yl)(3-trifluoromethylphenoxy)methyl]pyrrolidine], the Ki at NET and at SERT [2] was not above 100 nM each time.
Consider `Clc1cccc(Cl)c1O[C@H](C1CCOCC1)[C@@H]1CCNC1` [Example 13-26, (R)-3-[(R)-(2,6-Dichlorophenoxy)(tetrahydropyran-4-yl)methyl]pyrrolidine], for which the Ki at NET was not above 10 nM; at SERT [2], not above 100 nM.
For `Clc1cccc(Cl)c1O[C@H](C1CCOCC1)[C@H]1CCNC1` [Example 13-25, (S)-3-[(R)-(2,6-Dichlorophenoxy)(tetrahydropyran-4-yl)methyl]pyrrolidine], in that order: not above 100 nM and not above 100 nM.
`FC(F)(F)c1cccc(O[C@H](C2CCOCC2)[C@@H]2CCNC2)c1` [Example 13-7, (R)-3-[(R)-(Tetrahydropyran-4-yl)(3-trifluoromethylphenoxy)methyl]pyrrolidine]: the Ki on NET and on SERT [2] was not above 100 nM each time.
`Fc1ccc(O[C@H](C2CCOCC2)[C@@H]2CCNC2)cc1` [Example 13-10, (R)-3-[(R)-(4-Fluorophenoxy)(tetrahydropyran-4-yl)methyl]pyrrolidine]: the Ki at NET and at SERT [2] was not above 100 nM each time.
With `COCC(Oc1ccccc1Cl)C1CCNC1` (single isomer, unassigned) [Example 4-2, 3-[1-(2-Chlorophenoxy)-2-methoxyethyl]pyrrolidine], the Ki at NET is not above 10 nM. In addition, the “SERT pKi” value on SERT [2] is recorded as “≧7.0”.
In the case of `Clc1ccccc1O[C@H](C1CCOCC1)[C@@H]1CCNC1` [Example 13-2, (R)-3-[(R)-(2-Chlorophenoxy)(tetrahydropyran-4-yl)methyl]pyrrolidine], the Ki is not above 10 nM on NET and not above 100 nM on SERT [2].
For `Fc1cccc(O[C@@H](C2CCOCC2)[C@@H]2CCNC2)c1` [Example 13-5, (R)-3-[(S)-(3-Fluorophenoxy)(tetrahydropyran-4-yl)methyl]pyrrolidine], the Ki at NET and on SERT [2] was not above 100 nM throughout.
On to `Fc1cccc(O[C@H](C2CCOCC2)[C@@H]2CCNC2)c1` [Example 13-6, (R)-3-[(R)-(3-Fluorophenoxy)(tetrahydropyran-4-yl)methyl]pyrrolidine], for which the Ki at NET is not above 10 nM; at SERT [2], not above 100 nM.
As for `COC[C@H](Oc1cccc(Cl)c1C)[C@@H]1CCNC1` [Example 4-17, (R)-3-[(R)-1-(3-Chloro-2-methylphenoxy)-2-methoxyethyl]pyrrolidine], the Ki at NET was not above 100 nM; at SERT [2], not above 10 nM.
`CSCCC(Oc1cccc(Cl)c1Cl)C1CCNC1` (mixture of isomers) [Example 20, 3-[1-(2,3-Dichlorophenoxy)-3-methylsulfanylpropyl]pyrrolidine]: the Ki at NET and on SERT [2] was not above 10 nM throughout.
For the compound `COCC(Oc1cc(Cl)cc(Cl)c1)C1CCNC1` (stereo not drawn) [Example 4-29, 3-[1-(3,5-Dichlorophenoxy)-2-methoxyethyl]pyrrolidine], the Ki on NET is not above 100 nM; on SERT [2], not above 10 nM.
